Assays:
[1] = Toxicity in nude mouse xenografted with human NCI-H1975 cells harboring EGFR T790M/L858R mutant assessed as body weight loss at 15 mg/kg, po administered once daily for 7 days relative to control; assay type: organism-based; details: in vivo, 168 h, time 7 day
NCI-H1975 [2] = assay: Induction of apoptosis in human NCI-H1975 cells harboring EGFR T790M/L858R mutant assessed as late apoptotic cells at 5 nM measured after 72 hrs by Annexin-V-FITC/propidium iodide staining based flow cytometry (reference value: 0.13%); assay type: functional
NCI-H1975 [3] = assay: Induction of mitochondrial membrane potential loss in human NCI-H1975 cells harboring EGFR T790M/L858R mutant assessed as cell population with mitochondrial membrane potential collapse at 10 nM measured after 24 hrs by JC1 staining based fluorescence microscopic analysis (reference value: 5.49%); assay type: functional
NCI-H292 = assay: Antiproliferative activity against human NCI-H292 cells harboring wild-type EGFR by MTT assay; assay type: functional, cell-based

Question: Which Activity [1] does the source give for C=CC(=O)Nc1cc(Nc2nccc(-c3cn(C4CC4)c4ccccc34)n2)c(OC)cc1[S+]([O-])CCN(C)C (centres undefined) here?
Answer: < 5%

Question: And the Activity (NCI-H1975 [2])?
Answer: 17.07%

Question: What about the Activity (NCI-H1975 [3]) of the same compound?
Answer: 40.31%

Question: What about the IC50 (NCI-H292) of the same compound?
Answer: 718 nM
